Measurements published in ChEMBL document CHEMBL1142582, “Lignans and their degraded derivatives from Sarcostemma acidum” (2005).
≈ marks a conversion by molar mass, not a printed value.

How the values were obtained:
Type in all cases: functional
Candida albicans = assay: Antimicrobial activity against Candida albicans ATCC 1600 after 48 hrs by broth microdilution test; conditions: ATCC 1600, 48 h
Staphylococcus aureus = assay: Antimicrobial activity against Staphylococcus aureus ATCC 25923 after 18 hrs by broth microdilution test; conditions: ATCC 25923, 18 h
[1] = tested on: Staphylococcus epidermidis; assay: Antimicrobial activity against Staphylococcus epidermidis ATCC 12228 after 18 hrs by broth microdilution test; conditions: ATCC 12228, 18 h

MIC (Candida albicans) [µM] | MIC (Staphylococcus aureus) [µM] | MIC [1] [µM] | SMILES
14 (≈ 6.05 µg/mL) | – | – | COC(=O)C1=CC[C@@]23CC[C@@H]([C@@](C)(/C=C/C=C(\C)C(=O)O)OC2=O)[C@@]3(OC(C)=O)CC1 [PSEUDOLARIC ACID B]
– | 47 (≈ 12.5 µg/mL) | 23 (≈ 6.13 µg/mL) | C=CCc1ccc(O)c(-c2cc(CC=C)ccc2O)c1 [MAGNOLOL]
> 130 | > 130 | > 130 | COc1cc([C@@H]2c3cc(OC)c(O)c(OC)c3C=C(C)[C@H]2C)cc(OC)c1O (relative stereo) [SACIDUMLIGNAN B]
> 130 | 130 (≈ 50 µg/mL) | 65 (≈ 25 µg/mL) | COc1cc(-c2c(C)c(C)cc3c(OC)c(O)c(OC)cc23)cc(OC)c1O [SACIDUMLIGNAN A]
